In patent publication US8129514B2, “Nucleotide sequences for regulating gene expression in plant trichomes and constructs and methods utilizing same” (Evogene Ltd., priority 2003, dated 2012):
Marks after values point to notes of the source that are not given here.

Assays:
PPO [1] = conditions: positive control at 200 mM; PPO harvested from trichome cells; cited from earlier work
PPO [2] = assay: Decrease of PPO activity (browning of supernatant) by antioxidants in ground tomato leaves; type: biochemical, Tomato (L. esculentum); conditions: for Efficient concentration (minimal concentration that enables a decrease of 95% of PPO activity): w/v, 10 mM Tris-HCl pH=8, about 2 hrs at 4° C.
Method: Three compounds were tested: citric acid, ascorbic acid and sodium bisulfite. Different concentrations of chemicals were used to identify the chemical with the highest antioxidant activity. Tomato (L. esculentum) young leaves (about 100 mg) were grinded at 4° C. in 200 μl of 10 mM Tris-HCl pH=8 buffer containing appropriate concentration of antioxidant (0.01-2.0% w/v), incubated for about 2 hrs at 4° C. and centrifuged at 14,000 rpm for 3 min in order to separate leaves-debris and liquid fraction. Decreasing of PPO activity was inspected by eliminating the production of brown color of the supernatant as a result of the oxidation of polyphenols. Table 8 below summarizes the minimal concentration that enables a decrease of 95% of PPO activity.
A buffer without any antioxidant was used as a negative control.

tomato trichome = assay: GUS staining of leaves of T1 tomato plants carrying promoter-GUS constructs; type: in vivo, tomato (Lycopersicon esculentum cv. Micro-Tom)
Method: Tomato transformation—Tomato transformation was carried out according to Fillati et al. (19). Briefly, Lycopersicon esculentum cv. Micro-Tom cotyledons were used for Agrobacterium based plant transformation. The Micro-Tom seeds were surface sterilized for 10 min in a 3% sodium hypochlorite solution. The seeds were washed with DDW three times and soaked for three hours in fresh DDW, then plated into 0.5 L container with Nitsch medium, containing MS salts, 3% sucrose, Nitsch vitamins and 0.8% plant agar (Duchefa, Netherland). The PH was adjusted to 5.8 prior to autoclaving for 20 min at 121° C. 50 seeds where plated on 0.5 L sterilized container containing the germination medium and left at 25° C. in culture room, 16/8 hrs light/dark cycles, under light intensity of (150 μEm^−2S). Seedlings where grown for 8 days.
A. GUS staining—Gus staining of tomato and tobacco plants was effected as previously described (15). Briefly: Leaves were fixed in 90% ice cold acetone for 15-20 minutes (on ice), followed by removal of acetone and a double tissue rinsing with the Working Solution [25 mM Sodium Phosphate (Sigma, USA) buffer pH=7, Ferricyanide (Sigma, USA) 1.25 mM, Ferrocyanide (Sigma, USA) 1.25 mM, Triton X-100 (Sigma, USA) 0.25%, EDTA (BioLab) 0.25 mM] for 15-20 minutes. Rinse solution was removed, replaced with Staining solution [Working solution with 5-bromo-4-chloro-3-indolyl-β-D-glucuronic acid (X-GlcA, Duchefa) solubilized in N,N-Dimethylformamide (BioLab) 1.5 mg/ml and Dithiothreitol (DTT, Bio Lab) 100 mM] and incubated in the dark (tubes wrapped with aluminum foil) over night at 37° C. Distaining was effected by sinking the plant tissue in 70% ethanol and heating at 50° C. for ˜2 hours. The distaining step was repeated until the plant tissue became transparent except the blue stained regions. Distained plants were stored in 70% ethanol (BioLab) at room temperature.
GUS staining was performed on leaves of T1 tomato and tobacco plants transfected with a binary vector including putative trichome specific promoters upstream of a GUS gene. […]

In the case of `O[C@H](CS)[C@H](O)CS` (racemic) [DDT, Dithiothreitol], the PPO activity (PPO [1]) is listed as “eliminate PPO activity”.

For `O=C1O[C@H]([C@@H](O)CO)C(O)=C1O` [Ascorbic acid], the “Efficient concentration (minimal concentration that enables a decrease of 95% of PPO activity)” value (PPO [2]) was 1.0%*.

In the case of `O=C(O)CC(O)(CC(=O)O)C(=O)O` [Citric acid], the “Efficient concentration (minimal concentration that enables a decrease of 95% of PPO activity)” value (PPO [2]) is reported as 1.0%.

In the case of `O=S([O-])O.[Na+]` [Sodium bisulfite], the “PPO activity as indicated by medium browning” value (PPO [2]; increasing concentrations, FIG. 3) is reported as “decreased PPO activity” and the “Efficient concentration (minimal concentration that enables a decrease of 95% of PPO activity)” value (PPO [2]) is reported as 0.05%.

B1: TR27-P: previously described cotton promoter, G. barbadense var. Pima 15, SEQ ID NO: 39 (nucleic acid)
DNA: AAGCTTTAAGTTTAAATCCTATTGTAGTGTTATTTATAAAAAAAATGAGAAAAGATAAAAATACCTTTATATTAATATTTGTTATATTATAAAATAAGGATATTTTTAACAAATTTTCAATTGAATAGATGTTTGGGTGAATCCTAATACCAATTAAAGTATATATACAGCAAACAATTATAAATCAAATTACTTTTAATAAAATGCTATCATTCAATTCAATGACAATAAATGCATTTATAAATACATCAAATGTAAATCTCATGTTTATAAGAAAACACGTAGAAAAAAAGTTAAACCAATATTTGAGTCCTAGCTGTGGAGGCATGATTGAGTGAAATCAAATGGACGCTGGTTTTAATTCTATTGAAAGAAACCAATAATCACGTAGGTTGGCAGTTGAACATAATTGAATGGTCTCAACTTTTAATGTGGTGTTAATGTTTGGATCGGATAATCTCAACTTACCTAATAGCTAGGAAAGTAAAATTCAAACATCACCCGCTACTACTTTTGGCTATAAAAACCCTCCTACCCTCAAGCCCTAACCACGACAATCACCAATAGTACTACTACTCCAAGCAAGTATTTTCCTTACACGTTTGTTTTTCTTGTGATAATGGATCC
modifications: Gossypium barbadense
For B1, the Avg grade (tomato trichome; GUS staining, tomato T1 generation, signal peptide: No) was 0.4, the GUS expression pattern (tomato trichome; GUS under the regulation of the promoter, FIGS. 1d-h) was “expressed in a trichome-gland specific manner” and the “effectiveness in facilitating expression of heterologous genes in the tomato trichome” value (tomato trichome; conclusion from Table 6) was “most effective”.
